Patent US6166049A, “Use of an antagonist of PPARα and PPARγ for the treatment of syndrome X” (SmithKline Beecham P.L.C., priority 1996, dated 2000)

Columns and labels:
C57 Bl/KsJ db/db mouse [1] = assay: Blood glucose in the C57 Bl/KsJ db/db mouse; type: in vivo; details: mean ± SD, n = 9-10; for Blood glucose, pre-dose: treated group before dosing (baseline)
Experimental: (§1) 2) Determination of Compound Efficacy on Blood Glucose and Plasma Lipids in the C57 Bl/KsJ db/db Mouse
(§2) This is paralleled by glycosuria and polyuria with a compensatory increase in water intake. Circulating serum triglycerides and free fatty acids are also elevated.
(§3) Compounds are administered by dietary admixture (powdered RM3 diet) for 14 days and blood glucose measured in samples taken from the tail vein of conscious non-fasted mice at appropriate intervals during the treatment period. After the 14 day treatment period, mice are killed by cervical dislocation and blood obtained from the severed jugular veins. Triglyceride and non-esterified fatty acids are measured in samples of serum obtained by centrifugation.

human PPARα = molecular target: T1, human PPARα (Homo sapiens, UniProt Q07869); assay: hPPARα agonist activity, transactivation reporter gene assay; type: cell-based; details: read-out: EC50 for activation of human PPARα
T1 construct: expressed in transfected cells
T1 sequence (Q07869 239-466 limits assumed): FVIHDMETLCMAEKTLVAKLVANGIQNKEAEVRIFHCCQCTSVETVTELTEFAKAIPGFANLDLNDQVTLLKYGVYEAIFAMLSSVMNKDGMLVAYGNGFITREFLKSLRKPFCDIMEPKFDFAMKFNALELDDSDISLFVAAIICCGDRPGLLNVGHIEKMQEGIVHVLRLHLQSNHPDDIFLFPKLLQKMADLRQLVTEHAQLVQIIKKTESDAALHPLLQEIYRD
Description: (§4) PPARα and γ agonist activity may be assessed by use of the methodology, or similar methodology, to that disclosed by Lehmann et al: Journal of Biological Chem., 270, 12953-12956 (1995).
In one aspect PPARα agonist compounds are those which stimulate a PPAR alpha chimeric receptor consisting of the PPAR alpha ligand binding site linked to a suitable reporter gene construct such as luciferase or chloramphenicol acetyltransferase (CAT). This activity can be identified by using the methods outlined by Lehmann et al., ibid.
(a) PPARα agonist activity by detecting stimulation of a PPAR alpha chimeric receptor consisting of the PPAR alpha ligand binding site linked to a suitable reporter gene construct; and
A suitable PPARα chimeric receptor comprises the amino acids of the ligand binding domain, for example amino acids 281-468, of the human PPARα, fused to amino acids 1-147 (DNA binding domain) of the gal 4 yeast transcription factor.
(§5) A suitable reporter gene construct is a luciferase or chloramphenicol acetyltransferase (CAT).
A suitable luciferase reporter gene construct contains gal 4 DNA binding elements in HEK-293 cells.
1) Determination of hPPARα and hPPAR-γ Agonist Activity
(§6) Compound agonist effects at human PPARα and PPARγ were assessed using a transactivation reporter gene assay, based on that described by Lehman et al. (1995) J Biol Chem 270, 12953-12956.

human PPARγ = molecular target: T2, human PPARγ (Homo sapiens, UniProt P37231); assay: hPPARγ agonist activity, transactivation reporter gene assay; type: cell-based; details: read-out: EC50 for activation of human PPARγ
T2 construct: expressed in transfected cells
T2 sequence (P37231 173-476 isoform P37231-2): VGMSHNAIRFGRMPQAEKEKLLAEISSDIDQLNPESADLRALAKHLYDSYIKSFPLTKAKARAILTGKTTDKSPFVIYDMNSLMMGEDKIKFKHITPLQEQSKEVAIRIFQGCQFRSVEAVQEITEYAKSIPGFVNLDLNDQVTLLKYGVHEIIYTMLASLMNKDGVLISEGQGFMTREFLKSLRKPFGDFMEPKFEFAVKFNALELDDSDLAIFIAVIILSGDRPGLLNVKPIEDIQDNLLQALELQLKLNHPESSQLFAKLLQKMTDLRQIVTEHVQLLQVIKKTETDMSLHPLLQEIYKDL
Description: as §4
In one aspect PPARγ agonist compounds are those which stimulate a PPARγ chimeric receptor containing the PPAR gamma ligand binding site linked to a suitable reporter gene construct such as luciferase or chloramphenicol acetyltransferase (CAT). This activity can be identified by using the methods of Lehmann et al. J Biol. Chem., ibid.
(b) PPARγ agonist activity by detecting stimulation of a PPARγ chimeric receptor containing the PPAR gamma ligand binding site linked to a suitable reporter gene construct such as luciferase or chloramphenicol acetyltransferase (CAT).
A suitable PPARγ chimeric receptor comprises the amino acids of the ligand binding domain, for example amino acids 173-476, of the human PPARγ receptor fused to amino acids 1-147 (DNA binding domain) of the gal 4 yeast transcription factor.
as §5
A suitable luciferase reporter gene construct contains gal 4 DNA binding elements in HEK-293 cells. […]
as §6

C57 Bl/KsJ db/db mouse [2] = assay: Serum lipids in the genetically diabetic C57 Bl/KsJ db/db mouse; type: in vivo; details: 0.3 umol/kg body wt, dietary admixture, after 14 days, *** p < 0.001, mean ± SD
Experimental: as §1, §2, §3

CN(CCOc1ccc(C[C@H](OCC(F)(F)F)C(=O)O)cc1)c1nc2ccccc2o1 [(S)-3-[4-[2-[N-(2-benzoxazolyl)-N-methylamino]ethoxy]phenyl]-2-(2,2,2-trifluoroethoxy)propanoic acid]
Blood glucose, post dose (13 days) (C57 Bl/KsJ db/db mouse [1]; EXPT I, dietary admixture, 13 days, control 34.0 ± 7.9, *** p < 0.001): 11.0 ± 3.6 mmol/L | Blood glucose, pre-dose (C57 Bl/KsJ db/db mouse [1]; EXPT I, control 15.5 ± 3.7): 15.6 ± 4.0 mmol/L | Blood glucose, Day 1 (C57 Bl/KsJ db/db mouse [1]; EXPT II, dietary admixture, Day 1, control 17.2 ± 3.7): 14.1 ± 3.7 mmo/l | Blood glucose, Day 2 (C57 Bl/KsJ db/db mouse [1]; EXPT II, dietary admixture, Day 2, control 19.9 ± 2.7, ** p < 0.01): 15.0 ± 3.4 mmo/l | Blood glucose, Day 3 (C57 Bl/KsJ db/db mouse [1]; EXPT II, dietary admixture, Day 3, control 20.2 ± 3.9, *** p < 0.001): 12.2 ± 5.1 mmo/l | Blood glucose, Day 5 (C57 Bl/KsJ db/db mouse [1]; EXPT II, dietary admixture, Day 5, control 21.2 ± 1.9, *** p < 0.001): 11.3 ± 3.6 mmo/l | Blood glucose, Day 7 (C57 Bl/KsJ db/db mouse [1]; EXPT II, dietary admixture, Day 7, control 23.4 ± 2.0, *** p < 0.001): 11.7 ± 3.7 mmo/l | Blood glucose, pre-dose (C57 Bl/KsJ db/db mouse [1]; EXPT II, control 16.5 ± 2.9): 16.2 ± 4.3 mmo/l | EC50 (human PPARα): 2500 nM | EC50 (human PPARγ): 70 nM | Serum non-esterified fatty acids (C57 Bl/KsJ db/db mouse [2]; control 2.58 ± 0.45): 1.28 ± 0.15 mmol/L | Serum triglycerides (C57 Bl/KsJ db/db mouse [2]; control 3.78 ± 1.34): 2.58 ± 0.45 mmol/L
